According to patent publication US6140354A, “N-substituted aminotetralins as ligands for the neuropeptide Y Y5 receptor useful in the treatment of obesity and other disorders” (Ortho-McNeil Pharmaceutical, Inc., priority 1999, dated 2000):

Biological target: T1, human neuropeptide Y5 receptor (Homo sapiens, UniProt Q15761)
T1 construct: expressed in transfected cells
T1 sequence (Q15761 1-445): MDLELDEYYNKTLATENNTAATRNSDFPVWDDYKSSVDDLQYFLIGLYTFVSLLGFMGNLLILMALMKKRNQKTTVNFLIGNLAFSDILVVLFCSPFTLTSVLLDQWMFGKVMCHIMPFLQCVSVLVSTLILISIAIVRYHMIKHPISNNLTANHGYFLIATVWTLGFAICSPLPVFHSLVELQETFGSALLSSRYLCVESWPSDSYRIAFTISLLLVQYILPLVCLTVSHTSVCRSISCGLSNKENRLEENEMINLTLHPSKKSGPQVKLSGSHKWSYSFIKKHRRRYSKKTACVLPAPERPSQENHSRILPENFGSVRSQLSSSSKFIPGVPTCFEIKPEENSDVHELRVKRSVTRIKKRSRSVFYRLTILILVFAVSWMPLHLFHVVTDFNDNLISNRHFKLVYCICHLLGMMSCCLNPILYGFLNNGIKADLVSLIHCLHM
Assay: NPY5 HTS Centrifugation Assay: competition with 125I-PYY for binding to NPY5-transfected HEK293 cell membranes
Conditions: 80 pM 125I-PYY, 1 hr room temperature, read-out: % Inh @ 3 uM (% Inhibition of ^125 I-PYY Binding)
Protocol: The compounds described in this invention were evaluated for binding to the human neuropeptide Y5 receptor.
The human NPY5 receptor cDNA (Genbank Accession number U66275) was inserted into the vector pClneo (Invitrogen) and transfected into human embryonic kidney cells (HEK-293) via Calcium phosphate method (Cullen 1987). Stably transfected cells were selected with G-418 (600 ug/mL). Stably transfected cells served as the source for the membranes for the NPY5 receptor binding assay.
NPY5-transfected HEK293 cells were grown to confluence in 150 cm^2 culture dishes. Cells were washed once with phosphate-buffered saline (Gibco Cat#14040-133). Cells were then incubated in phosphate-buffered saline without Calcium and without Magnesium, supplemented with 2 mM EDTA. Cells were incubated for 10 minutes at room temperature and the cells were collected by repetitive pipeting. Cells were formed into pellets and then frozen at -80 until needed. Frozen pellets were homogenized with a polytron at full speed for 12 seconds in a homogenization buffer (20 mM Tris HCl, 5 mM EDTA, pH 7.4). Homogenates were centrifuged for 5 minutes at 4C at 200 g. Supernatants were transferred to corex tubes and centrifuged for 25 minutes at 28,000 g. Pellets were re-suspended in Binding (20 mM HEPES, 10 mM NaCl, 0.22 mM KH2 PO4, 1.3 mM CaCl2, 0.8 mM MgSO4, pH 7.4). Membranes were kept on ice until use.
A competition binding assay, known to those skilled in the art, was used in which aminotetralins (I) compete with ^125 I-PYY for binding to cell membranes. In simple terms, the less ^125 I-PYY bound to the membranes implies that a compound is a good inhibitor (competitor). Bound ^125 I-PYY is determined by centrifugation of membranes, aspirating supernatant, washing away residual ^125 I-PYY and subsequently counting the bound sample in a g-counter.
Compounds to be tested were prepared as 10× stocks in binding buffer and added first to assay tubes (RIA vials, Sarstedt). Twenty (20) μL of each 10× compound stock is pipeted into vials and 80 μL of ^125 I-PYY (NEN catalog number NEX240), which has been diluted to a concentration of 200 pM in 0.25% BSA in binding buffer, is added to the compound tubes (final concentration of ^125 I-PYY is 80 pM). To each tube is added 100 μL of membranes and the mixture is agitated by pipeting 2 times. Samples are incubated for 1 hr at room temperature. Aluminum cast plates (Sarstedt) containing the vials are then centrifuged 10 minutes at 3200 rpm in a Sorvall RT6000. Supernatant is then aspirated. To each vial 400 μL PBS is added and this is then aspirated again. Vials are then put in carrier polypropylene 12×75 tube and counted in gamma counter (Packard). Non-specific binding is determined in the presence of 300 nM NPY. Percent inhibition of ^125 I-PYY binding is calculated by subtracting non-specific binding from the test samples (compound (I)), taking these counts and dividing by total binding, and multiplying by 100. Inhibitory concentration values (IC50) of compounds that show appreciable inhibition of ^125 I-PYY binding are calculated by obtaining percent inhibition of ^125 I-PYY binding values at different concentrations of the test compound, and using a graphing program such as GraphPad Prism (San Diego, Calif.) to calculate the concentration of test compound that inhibits fifty-percent of ^125 I-PYY binding (Table 4). These operations are known to those skilled in the art.

First: COc1ccc2c(c1)CCC(NC[C@H]1CC[C@H](CNS(=O)(=O)c3ccccc3CN)CC1)C2Cc1ccccc1 (stereo partly drawn) [Compound 67]
Second: COc1ccc2c(c1)CCC(NC[C@H]1CC[C@H](CNS(=O)(=O)c3ccccc3Cl)CC1)C2Cc1ccccc1 (relative stereo) [Compound 66]
The inhibition at 3 µM of the first is lower: 91% for the first, 99% for the second.

Going from COc1ccc2c(c1)CCC(NC[C@H]1CC[C@H](CNS(=O)(=O)c3ccc([N+](=O)[O-])cc3)CC1)C2Cc1ccccc1 (stereo partly drawn) [Compound 63] to COc1ccc2c(c1)CCC(NC[C@H]1CC[C@H](CNS(=O)(=O)c3cccc([N+](=O)[O-])c3)CC1)C2Cc1ccccc1 (stereo partly drawn) [Compound 62], the inhibition at 3 µM rises from 93% to 95%.

Going from COc1ccc2c(c1)CC[C@H](NCc1ccc(CNS(=O)(=O)c3ccc4ccccc4c3)cc1)[C@@H]2Cc1ccccc1 (relative stereo) [Compound 49] to COc1ccc2c(c1)CC[C@H](NCCCCCCCNS(=O)(=O)c1ccc3ccccc3c1)[C@@H]2Cc1ccccc1 (relative stereo) [Compound 47], the inhibition at 3 µM rises from 60% to 79%.

Going from COc1ccc2c(c1)CCC(NCCCCCCCCNS(=O)(=O)c1ccc3ccccc3c1)C2Cc1ccccc1 (stereo not drawn) [Compound 48] to COc1ccc2c(c1)CCC(NC1CCC(NS(=O)(=O)c3ccc4ccccc4c3)CC1)C2Cc1ccccc1 (stereo not drawn) [Compound 50], the inhibition at 3 µM falls from 68% to 44%.

Going from COc1ccc2c(c1)CCC(NC[C@H]1CC[C@H](CNS(=O)(=O)c3cc(Cl)cc(Cl)c3)CC1)C2Cc1ccccc1 (relative stereo) [Compound 56] to COc1ccc2c(c1)CCC(NC[C@H]1CC[C@H](CNS(=O)(=O)c3ccc(Cl)cc3Cl)CC1)C2Cc1ccccc1 (stereo partly drawn) [Compound 61], the inhibition at 3 µM rises from 73% to 94%.

Compared with COc1ccc2c(c1)CCC(NC[C@H]1CC[C@H](CNS(=O)(=O)c3ccccc3)CC1)C2Cc1ccccc1C(F)(F)F (stereo partly drawn) [Compound 98], COc1ccc2c(c1)CCC(NC[C@H]1CC[C@H](CNS(=O)(=O)c3ccccc3)CC1)C2Cc1ccccc1OC (relative stereo) [Compound 85] is higher in inhibition at 3 µM: 30% for the first, 74% for the second.

Going from O=S(=O)(NC[C@H]1CC[C@H](CN[C@H]2CCc3cc(F)ccc3[C@H]2Cc2ccccc2)CC1)c1ccccc1F (relative stereo) [Compound 26, rac-[1α,2α(trans)]-N-[[[[[1,2,3,4-tetrahydro-6-fluoro-1-(3-phenylmethyl)-2-naphthalenyl]amino]methyl]-4-cyclohexyl]methyl]2-fluorobenzenesulfonamide] to COc1ccc2c(c1)CCC(NC[C@H]1CC[C@H](CNS(=O)(=O)c3ccccc3F)CC1)C2Cc1ccccc1 (relative stereo) [Compound 57], the inhibition at 3 µM falls from 107% to 98%.

Going from COc1ccc2c(c1)CCC(NC[C@H]1CC[C@H](CNS(=O)(=O)c3ccc(Br)cc3)CC1)C2Cc1ccccc1 (stereo partly drawn) [Compound 70] to COc1ccc2c(c1)CC[C@H](NC[C@H]1CC[C@H](CNS(=O)(=O)c3ccccc3)CC1)[C@@H]2Cc1ccccc1 (relative stereo) [Compound 52], the inhibition at 3 µM rises from 95% to 99%.

Going from COc1ccc2c(c1)CCC(NC[C@H]1CC[C@H](CNS(=O)(=O)c3ccc4ccccc4c3)CC1)C2Cc1ccc2ccccc2c1 (relative stereo) [Compound 82] to COc1ccc2c(c1)CCC(NC[C@H]1CC[C@H](CNS(=O)(=O)c3ccc4ccccc4c3)CC1)C2Cc1cccc(Cl)c1 (stereo partly drawn) [Compound 93], the inhibition at 3 µM rises from 54% to 60%.

Compared with O=S(=O)(NC[C@H]1CC[C@H](CNC2CCc3cc(F)ccc3C2Cc2ccccc2)CC1)c1ccc(Cl)c(Cl)c1 (stereo partly drawn) [Compound 78], O=S(=O)(NC[C@H]1CC[C@H](CNC2CCc3cc(F)ccc3C2Cc2ccccc2)CC1)c1c(Cl)cccc1Cl (stereo partly drawn) [Compound 77] is higher in inhibition at 3 µM: 92% for the first, 102% for the second.

First: COc1ccc2c(c1)C(Cc1ccccc1)C(NC[C@H]1CC[C@H](CNS(=O)(=O)c3ccc4ccccc4c3)CC1)CC2 (relative stereo) [Compound 80]
Second: COc1ccc2c(c1)CC[C@H](NC[C@H]1CC[C@H](CNS(=O)(=O)c3ccc4ccccc4c3)CC1)[C@@H]2c1ccccc1 (relative stereo) [Compound 34, [1α,2α(trans)]-N-[[[[[1,2,3,4-tetrahydro-6-methoxy-1-phenyl-2-naphthalenyl]amino]methyl]-4-cyclohexyl]methyl]2-naphthlenesulfonamide]
The inhibition at 3 µM of the first is higher: 75% for the first, 46% for the second.

Compared with O=S(=O)(NC1CCC(CNC2CCc3ccccc3C2Cc2cccnc2)CC1)c1ccccc1 (stereo not drawn) [Compound 112], O=S(=O)(NC[C@H]1CC[C@H](CNC2CCc3ccc(Cl)cc3C2Cc2ccccc2)CC1)c1ccccc1 (stereo partly drawn) [Compound 104] is higher in inhibition at 3 µM: 95% for the first, 97% for the second.

Compared with COc1cc2c(cc1OC)C(Cc1ccccc1)C(NC[C@H]1CC[C@H](CNS(=O)(=O)c3ccccc3)CC1)CC2 (relative stereo) [Compound 108], O=S(=O)(NC[C@H]1CC[C@H](CNC2CCc3c(Cl)cccc3C2Cc2ccccc2)CC1)c1ccccc1 (relative stereo) [Compound 105] is lower in inhibition at 3 µM: 99% for the first, 98% for the second.

Compared with COc1ccc2c(c1)CC[C@H](NC[C@H]1CC[C@H](CNS(=O)(=O)c3ccccc3)CC1)[C@@H]2CCCO (relative stereo) [Compound 40, rac-[1α,2α(trans)]-N-[[[[[1,2,3,4-tetrahydro-6-methoxy-1-(3-hydroxypropyl)-2-naphthalenyl]amino]methyl]-4-cyclohexyl]methyl] benzenesulfonamide], COc1ccc2c(c1)CC[C@H](NC[C@H]1CC[C@H](CNS(=O)(=O)c3ccccc3[N+](=O)[O-])CC1)[C@@H]2Cc1ccccc1 (relative stereo) [Compound 54] is higher in inhibition at 3 µM: 91% for the first, 94% for the second.

First: COc1ccc2c(c1)CCC(NC[C@H]1CC[C@H](CNS(=O)(=O)c3ccc4ccccc4c3)CC1)C2Cc1cccc(C(F)(F)F)c1 (stereo partly drawn) [Compound 94]
Second: COc1cccc(CC2c3ccc(OC)cc3CCC2NC[C@H]2CC[C@H](CNS(=O)(=O)c3ccc4ccccc4c3)CC2)c1 (stereo partly drawn) [Compound 84]
The inhibition at 3 µM of the first is lower: 45% for the first, 82% for the second.

First: COc1ccc2c(c1)CCC(NC[C@H]1CC[C@H](CNS(=O)(=O)c3ccccc3[N+](=O)[O-])CC1)C2Cc1ccc([N+](=O)[O-])cc1 (relative stereo) [Compound 88]
Second: COc1ccc2c(c1)CCC(NC[C@H]1CC[C@H](CNS(=O)(=O)c3ccccc3[N+](=O)[O-])CC1)C2Cc1c(F)cccc1F (relative stereo) [Compound 90]
The inhibition at 3 µM of the first is lower: 85% for the first, 97% for the second.

In the case of O=S(=O)(NC[C@H]1CC[C@H](CNC2CCc3cc(F)ccc3C2Cc2ccccc2)CC1)c1ccc(Cl)cc1Cl (stereo partly drawn) [Compound 76], the inhibition at 3 µM is reported as 99%.
